These results are taken from ChEMBL document CHEMBL1138676, “Liver-selective glucocorticoid antagonists: a novel treatment for type 2 diabetes” (J Med Chem, 2004).

The target in one assay is Estrogen receptor beta (Homo sapiens, UniProt Q92731). In words: Inhibition of human Estrogen receptor beta.
The target of another assay is T1, Estrogen receptor (Homo sapiens, UniProt P03372).
T1 sequence (P03372 whole entry): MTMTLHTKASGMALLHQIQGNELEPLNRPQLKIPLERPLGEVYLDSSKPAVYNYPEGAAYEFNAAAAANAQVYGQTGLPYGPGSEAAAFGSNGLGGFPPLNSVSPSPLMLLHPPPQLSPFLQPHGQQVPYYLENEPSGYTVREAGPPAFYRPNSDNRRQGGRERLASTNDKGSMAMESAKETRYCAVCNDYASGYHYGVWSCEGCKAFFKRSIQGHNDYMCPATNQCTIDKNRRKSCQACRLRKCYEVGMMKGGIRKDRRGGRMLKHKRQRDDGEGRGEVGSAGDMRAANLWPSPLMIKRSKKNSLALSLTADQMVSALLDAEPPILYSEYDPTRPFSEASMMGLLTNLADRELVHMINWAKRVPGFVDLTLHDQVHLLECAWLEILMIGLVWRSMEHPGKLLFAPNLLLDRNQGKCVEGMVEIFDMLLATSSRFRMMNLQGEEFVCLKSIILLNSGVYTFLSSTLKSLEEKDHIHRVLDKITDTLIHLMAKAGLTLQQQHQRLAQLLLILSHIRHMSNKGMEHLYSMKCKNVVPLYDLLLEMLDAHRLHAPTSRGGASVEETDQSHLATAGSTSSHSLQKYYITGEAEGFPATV
The assay is described as follows: Inhibition of human Estrogen receptor alpha.

Assay [1] concerns the target T2, Thyroid hormone receptor beta (Homo sapiens, UniProt P10828).
T2 sequence (P10828 whole entry): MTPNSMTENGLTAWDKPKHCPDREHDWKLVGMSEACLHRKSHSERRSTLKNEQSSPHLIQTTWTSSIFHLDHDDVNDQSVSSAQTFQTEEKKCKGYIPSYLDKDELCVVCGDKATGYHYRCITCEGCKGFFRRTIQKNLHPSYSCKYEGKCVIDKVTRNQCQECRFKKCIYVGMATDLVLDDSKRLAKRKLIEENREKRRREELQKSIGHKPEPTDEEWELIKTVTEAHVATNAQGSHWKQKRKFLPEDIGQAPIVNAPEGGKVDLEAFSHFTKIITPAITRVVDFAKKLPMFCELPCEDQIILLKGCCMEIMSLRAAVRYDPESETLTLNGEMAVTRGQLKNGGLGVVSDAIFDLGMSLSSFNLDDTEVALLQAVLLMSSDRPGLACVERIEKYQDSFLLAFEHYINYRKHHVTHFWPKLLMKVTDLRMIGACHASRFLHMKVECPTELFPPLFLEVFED
The assay is described as follows: Inhibition of human Thyroid hormone receptor beta.

Assay [2] addresses T3, Thyroid hormone receptor alpha (Homo sapiens, UniProt P10827).
T3 sequence (P10827 whole entry): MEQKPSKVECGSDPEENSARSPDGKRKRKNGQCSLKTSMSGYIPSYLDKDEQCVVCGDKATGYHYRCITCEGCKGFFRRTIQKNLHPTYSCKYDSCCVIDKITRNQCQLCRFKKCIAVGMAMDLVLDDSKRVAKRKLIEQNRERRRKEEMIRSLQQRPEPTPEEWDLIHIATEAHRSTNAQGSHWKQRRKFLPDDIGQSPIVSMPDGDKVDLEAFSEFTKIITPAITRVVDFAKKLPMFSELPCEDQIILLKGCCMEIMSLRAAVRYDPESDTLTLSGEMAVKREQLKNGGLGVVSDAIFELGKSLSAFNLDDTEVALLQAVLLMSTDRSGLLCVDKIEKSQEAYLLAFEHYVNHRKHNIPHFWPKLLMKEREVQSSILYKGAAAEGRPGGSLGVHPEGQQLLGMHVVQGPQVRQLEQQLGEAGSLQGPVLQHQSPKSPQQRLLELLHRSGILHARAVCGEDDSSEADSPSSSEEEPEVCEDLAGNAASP
The assay is described as follows: Inhibition of human Thyroid hormone receptor alpha.

Another assay concerns the target T4, Androgen receptor (Homo sapiens, UniProt P10275).
T4 sequence (P10275 whole entry): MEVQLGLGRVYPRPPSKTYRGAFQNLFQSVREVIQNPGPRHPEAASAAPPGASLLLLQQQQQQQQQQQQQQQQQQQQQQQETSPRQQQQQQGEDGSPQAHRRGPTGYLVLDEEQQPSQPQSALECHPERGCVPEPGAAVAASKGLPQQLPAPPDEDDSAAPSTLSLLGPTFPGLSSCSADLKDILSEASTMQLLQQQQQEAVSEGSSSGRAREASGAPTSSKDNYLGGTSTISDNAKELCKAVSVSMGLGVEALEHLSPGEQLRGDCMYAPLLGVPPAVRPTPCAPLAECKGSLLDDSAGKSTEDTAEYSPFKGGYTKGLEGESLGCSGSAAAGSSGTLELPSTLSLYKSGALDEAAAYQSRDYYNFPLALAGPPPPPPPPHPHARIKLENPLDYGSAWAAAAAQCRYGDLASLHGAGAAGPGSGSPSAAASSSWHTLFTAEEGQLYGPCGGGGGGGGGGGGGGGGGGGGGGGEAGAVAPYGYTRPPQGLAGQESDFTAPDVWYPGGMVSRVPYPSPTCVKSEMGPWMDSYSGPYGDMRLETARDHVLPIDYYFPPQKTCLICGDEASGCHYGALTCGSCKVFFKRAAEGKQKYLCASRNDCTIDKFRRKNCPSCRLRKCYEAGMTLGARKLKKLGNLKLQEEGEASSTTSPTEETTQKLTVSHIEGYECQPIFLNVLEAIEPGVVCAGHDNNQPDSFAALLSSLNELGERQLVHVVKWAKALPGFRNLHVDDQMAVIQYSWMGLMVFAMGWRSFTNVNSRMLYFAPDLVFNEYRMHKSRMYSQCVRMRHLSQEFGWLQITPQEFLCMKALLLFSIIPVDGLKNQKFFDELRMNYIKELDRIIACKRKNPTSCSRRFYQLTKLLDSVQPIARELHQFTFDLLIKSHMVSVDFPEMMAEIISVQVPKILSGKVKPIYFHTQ

The structures appear in SMILES notation.

Sequence of Estrogen receptor beta (Q92731 whole entry): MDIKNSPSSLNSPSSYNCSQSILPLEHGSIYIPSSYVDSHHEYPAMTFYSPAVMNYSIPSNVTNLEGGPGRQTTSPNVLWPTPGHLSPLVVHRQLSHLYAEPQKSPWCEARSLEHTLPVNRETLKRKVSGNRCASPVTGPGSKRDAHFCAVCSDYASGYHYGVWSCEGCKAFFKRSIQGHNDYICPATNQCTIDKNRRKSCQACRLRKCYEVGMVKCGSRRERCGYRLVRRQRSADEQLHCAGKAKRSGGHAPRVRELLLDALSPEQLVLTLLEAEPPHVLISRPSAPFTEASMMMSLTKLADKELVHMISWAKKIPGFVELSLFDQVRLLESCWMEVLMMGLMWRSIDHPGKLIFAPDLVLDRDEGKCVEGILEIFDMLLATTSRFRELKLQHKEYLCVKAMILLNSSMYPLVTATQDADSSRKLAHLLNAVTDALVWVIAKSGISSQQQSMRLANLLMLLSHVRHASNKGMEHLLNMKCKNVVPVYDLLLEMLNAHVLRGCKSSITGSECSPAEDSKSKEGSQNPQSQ
Description for Androgen receptor: Inhibition of human androgen receptor

One may read the Ki as the equilibrium dissociation constant of an inhibitor or competing ligand from its target. Regarding `C#C[C@]1(O)CC[C@H]2[C@@H]3CCC4=CC(=O)CCC4=C3[C@@H](c3ccc(N(C)CCCC(=O)N(C)C4CC[C@@]5(C)[C@@H](C4)C[C@@H](O)[C@@H]4[C@@H]5C[C@H](O)[C@]5(C)[C@@H]([C@H](C)CCC(=O)O)CC[C@@H]45)cc3)C[C@@]21C` (some centres undefined), the Ki on Estrogen receptor beta is 13 nM; at Estrogen receptor, 6.2 nM; in assay [1] it was above 2250 nM; in assay [2], above 1250 nM; at Androgen receptor, 7.4 nM.

Turning to `C#C[C@]1(O)CC[C@H]2[C@@H]3CCC4=CC(=O)CCC4=C3[C@@H](c3ccc(N(C)C(=O)CNC(=O)OC4CC[C@@]5(C)[C@@H](C4)C[C@@H](O)[C@@H]4[C@@H]5C[C@H](O)[C@]5(C)[C@@H]([C@H](C)CCC(=O)O)CC[C@@H]45)cc3)C[C@@]21C` (some centres undefined), the Ki at Estrogen receptor beta is 160 nM; on Estrogen receptor, 11 nM; in assay [1] it was above 2250 nM; in assay [2], 1100 nM; on Androgen receptor it was 21 nM.

For `C#C[C@]1(O)CC[C@H]2[C@@H]3CCC4=CC(=O)CCC4=C3[C@@H](c3ccc(N(C)CCOC4CC[C@@]5(C)[C@@H](C4)C[C@@H](O)[C@@H]4[C@@H]5C[C@H](O)[C@]5(C)[C@@H]([C@H](C)CCC(=O)O)CC[C@@H]45)cc3)C[C@@]21C` (stereo in doubt; form 2), the Ki at Estrogen receptor beta was 110 nM; at Estrogen receptor it was 12 nM; in assay [1], 1500 nM; in assay [2], 670 nM; on Androgen receptor it was 8.1 nM.

Take `C#C[C@]1(O)CC[C@H]2[C@@H]3CCC4=CC(=O)CCC4=C3[C@@H](c3ccc(N(C)CCOC4CC[C@@]5(C)[C@@H](C4)C[C@@H](O)[C@@H]4[C@@H]5C[C@H](O)[C@]5(C)[C@@H]([C@H](C)CCC(=O)NCCS(=O)(=O)O)CC[C@@H]45)cc3)C[C@@]21C` (some centres undefined): the Ki on Estrogen receptor beta was 30 nM; at Estrogen receptor it was 10 nM; in assay [1], above 2250 nM; in assay [2] it was above 1250 nM; at Androgen receptor, 8.9 nM.

As to `C#C[C@]1(O)CC[C@H]2[C@@H]3CCC4=CC(=O)CCC4=C3[C@@H](c3ccc(N(C)CCOC4CC[C@@]5(C)[C@@H](C4)C[C@@H](O)[C@@H]4[C@@H]5C[C@H](O)[C@]5(C)[C@@H]([C@H](C)CCC(=O)NCC(=O)O)CC[C@@H]45)cc3)C[C@@]21C` (some centres undefined), the Ki in assay [1] was above 2250 nM; in assay [2] it was above 1250 nM; at Androgen receptor it was 34 nM.

Take `C#C[C@]1(O)CC[C@H]2[C@@H]3CCC4=CC(=O)CCC4=C3[C@@H](c3ccc(N(C)C(=O)CNC(=O)O[C@@H]4C[C@@H]5CC(O)CC[C@]5(C)[C@H]5C[C@H](O)[C@]6(C)[C@@H]([C@H](C)CCC(=O)O)CC[C@H]6[C@H]45)cc3)C[C@@]21C` (some centres undefined): the Ki on Estrogen receptor beta was above 750 nM; on Estrogen receptor, 94 nM; in assay [1], above 2250 nM; in assay [2], above 1250 nM; on Androgen receptor it was 37 nM.

`C#C[C@]1(O)CC[C@H]2[C@@H]3CCC4=CC(=O)CCC4=C3[C@@H](c3ccc(N(C)CCC[C@H]4[C@H](O)CC[C@@]5(C)[C@@H]4C[C@@H](O)[C@@H]4[C@@H]5C[C@H](O)[C@]5(C)[C@@H]([C@H](C)CCC(=O)O)CC[C@@H]45)cc3)C[C@@]21C`: the Ki was found to be 48 nM at Estrogen receptor beta, 46 nM at Estrogen receptor and 53 nM on Androgen receptor.

With `C#C[C@]1(O)CC[C@H]2[C@@H]3CCC4=CC(=O)CCC4=C3[C@@H](c3ccc(N(C)CCCS(=O)(=O)N(C)C4CC[C@@]5(C)[C@@H](C4)C[C@@H](O)[C@@H]4[C@@H]5C[C@H](O)[C@]5(C)[C@@H]([C@H](C)CCC(=O)O)CC[C@@H]45)cc3)C[C@@]21C` (some centres undefined), the Ki at Estrogen receptor beta came out at 39 nM; on Estrogen receptor, 19 nM; at Androgen receptor, 17 nM.
